# Experimental data from patent publication US20250051276A1 (priority 2021, published 2025).
# Legend:
# [1] = system: rat cortical neurons; test: Neurite outgrowth in primary neuronal cultures assay; format: cell-based; parameters: key: A: Statistically significant mean increase as a percent of DMSO control at 10 μM or less; B: No statistically significant mean increase as a percent of DMSO control at 10 μM or less; conditions: 72 h, vs DMSO control, 10 μM or less
# Excerpt: Neurite Outgrowth in Primary Neuronal Cultures Assay. Changes in the pattern of neurite outgrowth have been implicated in psychiatric and neurodegenerative disorders as well as traumatic injuries. The discovery of new compounds that can positively affect neuritogenesis are important for developing new therapeutics for neurological diseases. Measurement of neurite outgrowth of rat cortical neurons using an automated image-based assay was used to determine the neuroplastic effects of the compounds of the present disclosure. The neurite outgrowth assay was performed at Neurofit SAS (France) as described below.
# Pregnant Wistar rats (Janvier; France) were used for the study. They were delivered 6 days before their use. Upon arrival at Neurofit animal facility, they were housed one per cage and maintained in a room with controlled temperature (21-22° C.) and a reversed light-dark cycle (12 h/12 h; lights on: 17:30-05:30; lights off: 05:30-17:30) with food and water available ad libitum.
# Female Wistar rats of 17 days gestation were killed by cervical dislocation and the fetuses were removed from the uterus. Their brains were placed in ice-cold medium of Leibovitz (L15, Gibco, Fisher bioblock, France). Cortices were dissected and meninges were carefully removed. The cortical neurons were dissociated by trypsinization for 30 min at 37° C. (trypsin-EDTA, Gibco) in presence of 0.1 mg/ml DNAse I (Roche, France). The reaction was stopped by addition of Dulbecco's Modified Eagle Medium (DMEM; Gibco) with 10% of fetal bovine serum (FBS; Gibco). The suspension was triturated with a 10-ml pipette and using a needle syringe 21 G and centrifuged at 350×g for 10 min at room temperature. The pellet of dissociated cells was resuspended in a medium consisting of Neurobasal (Gibco) supplemented with 2% B27 supplement (Gibco), 0.5 mM L-Glutamine (Gibco), an antibiotic-antimicotic mixture. Viable cells were counted in a Neubauer cytometer using the trypan blue exclusion test (Sigma). Cells were seeded at a density of 10000 cells per well in 96-well plate (Costar) precoated with poly-L-lysine. Test compound at different concentrations were added to the cultures. Donepezil (positive control) was tested at 250 nM.
# After 72 h (3 days) of plating, cultures were fixed with paraformaldehyde in PBS (4%, Sigma) for 30 min at 4° C. Then, cells were successively permeabilized with 0.1% Triton X100 for 30 min, saturated with PBS containing 3% of BSA and were incubated 1 h with anti-beta III tubulin antibody (Sigma) at 1/10 000 in PBS containing 0.5% of BSA. Cells were washed three times with PBS containing 0.5% of BSA, and they were incubated 1 h with goat anti-mouse antibody coupled with AF488 (Invitrogen A11001) diluted at 1/1000 in PBS containing 0.5% of BSA. Finally, nuclei were staining with DAPI 1 mg/ml at 1/1000 in PBS containing 0.5% of BSA. After rinsing with PBS, the plate was filmed and neurite networks were examined and analyzed using High-Content Screening (CellInsight, Thermo Scientific). The average number of neurites per neuron and the average total length of neurites per neuron were the main parameters analyzed. Analysis of data was performed using analysis of variance (ANOVA). The Fisher's Protected Least Significant Difference test was used for multiple comparisons. A p value ≤0.05 was considered significant. The software used is StatView 5.0 from SAS Institut.
# [2] = target: T1, 5-HT2A (Homo sapiens, UniProt P28223); test: Serotonin 5-HT2A in vitro cellular IPOne agonism assay; format: cell-based; parameters: host or cells: CHO-K1; conditions: CHO-K1 cells, IPOne HTRF, agonist mode
# Description: Serotonin 5-HT2A In Vitro Cellular IPOne Agonism Assay. The 5-HT2A IPOne HTRF assay was performed at Epics Therapeutics S.A. (Belgium, FAST-0505I) using conventional methods. Briefly, CHO-K1 cells expressing human recombinant 5-HT2A receptor grown to mid-log phase in culture media without antibiotics were detached with PBS-EDTA, centrifuged, and resuspended in medium without antibiotics buffer. 20,000 cells were distributed in a 96 well plate and incubated overnight at 37° C. with 5% CO2.
# For agonist testing, the medium was removed and 20 μl of assay buffer plus 20 μl of test compound or reference agonist are added in each well. The plate is incubated for 60 min. at 37° C. with 5% CO2.
# (§1) After addition of the lysis buffer containing IP1-d2 and anti-IP1 cryptate detection reagents, plates were incubated 1-hour at room temperature, and fluorescence ratios were measured according to the manufacturer specification, with the HTRF kit.
# [3] = target: T1, 5-HT2A; test: Serotonin 5-HT2A in vitro cellular IPOne antagonism assay; format: cell-based; parameters: host or cells: CHO-K1; conditions: CHO-K1 cells, IPOne HTRF, reference agonist a-Me-5HT; read-out: 5-HT2A IPOne Antagonist Activity
# Description: Serotonin 5-HT2A In Vitro Cellular IPOne Antagonism Assay. The 5-HT2A TPOne HTRF assay was performed at Epics Therapeutics S.A. (Belgium, FAST-0505I) in antagonism mode using conventional methods. Briefly, CHO-K1 cells expressing human recombinant 5-HT2A receptor grown to mid-log phase in culture media without antibiotics were detached with PBS-EDTA, centrifuged, and resuspended in medium without antibiotics buffer. 20,000 cells were distributed in a 96 well plate and incubated overnight at 37° C. with […].
# For antagonist testing, a reference agonist a-Me-5HT was added and fluorescence signal monitored for several minutes, followed by addition of 20 μl of assay buffer plus 20 μl of test compound or reference antagonist ketanserin, in each well. The plate was incubated for 60 min. at 37° C. with 5% CO2.
# as §1
# [4] = target: T1, 5-HT2A; test: Serotonin 5-HT2A in vitro radioligand binding competition assay; parameters: purchased Epics Therapeutics S.A. (Belgium) FAST-0505B; host or cells: membrane extracts; conditions: radiotracer [3H]-DOI, membrane extracts
# Description: Serotonin 5-HT2A In Vitro Radioligand Binding Competition Assay. The 5-HT2A radioligand binding competition assay was performed at Epics Therapeutics S.A. (Belgium, FAST-0505B) using conventional methods. Briefly, competition binding was performed in duplicate in the wells of a 96 well plate (Master Block, Greiner, 786201) containing binding buffer (optimized for each receptor), membrane extracts (amount of protein/well optimized for each receptor), radiotracer [^3H]-DOI (final concentration optimized for each receptor) and test compound. Nonspecific binding was determined by co-incubation with 200-fold excess of cold competitor. The samples were incubated in a final volume of 0.1 ml at a temperature and for a duration optimized for each receptor and then filtered over filter plates. Filters were washed six times with 0.5 ml of ice-cold washing buffer (optimized for each receptor) and 50 µl of Microscint 20 (Packard) were added in each well. The plates were incubated 15 min on an orbital shaker and then counted with a TopCount™ for 1 min/well.
# [5] = system: 5HT2A sensor; conditions: cited from earlier work
# T1 sequence (P28223 whole entry): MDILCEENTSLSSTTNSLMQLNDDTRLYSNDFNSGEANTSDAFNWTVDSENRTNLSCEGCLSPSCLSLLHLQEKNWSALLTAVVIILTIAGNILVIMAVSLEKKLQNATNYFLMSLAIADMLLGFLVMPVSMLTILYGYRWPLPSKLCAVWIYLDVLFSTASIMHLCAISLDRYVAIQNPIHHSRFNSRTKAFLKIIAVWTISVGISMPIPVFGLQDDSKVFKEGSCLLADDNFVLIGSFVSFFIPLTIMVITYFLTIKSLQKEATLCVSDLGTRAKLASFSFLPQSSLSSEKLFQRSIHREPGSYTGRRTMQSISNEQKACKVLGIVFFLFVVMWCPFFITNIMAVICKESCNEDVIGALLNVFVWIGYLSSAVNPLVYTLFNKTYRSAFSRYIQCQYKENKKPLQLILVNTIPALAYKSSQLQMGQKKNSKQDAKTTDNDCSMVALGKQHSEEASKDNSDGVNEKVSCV
SMILES,Increase in Neurite Length [1],Increase in Neurite Number [1],Increase in Number of Branchpoints [1],EC50 [2] [nM],IC50 [3] [nM],IC50 [4] [nM],activation of the 5HT2A sensor assay in agonist mode [5]
"C[C@H](Cn1ccc2nc(OCc3ccccc3)ccc21)N(C)C [Compound 1, (R)-1-(5-(benzyloxy)-1H-pyrrolo[3,2-b]pyridin-1-yl)-N,N-dimethylpropan-2-amine]",A,A,A,> 10000,101 to 1000,101 to 1000,
"C[C@@H](N)Cn1ccc2nc(OCc3ccccc3)ccc21 [Compound 2, (R)-1-(5-(benzyloxy)-1H-pyrrolo[3,2-b]pyridin-1-yl)propan-2-amine]",,,,> 10000,,> 10000,
"C[C@H](Cn1ccc2cc(OCc3ccccc3)ccc21)N(C)C [Compound 3, (R)-1-(5-(benzyloxy)-1H-indol-1-yl)-N,N-dimethylpropan-2-amine]",A,B,B,> 10000,10 to 100,101 to 1000,
"CN[C@H](C)Cn1ccc2cc(OCc3ccccc3)ccc21 [Compound 4, (R)-1-(5-(benzyloxy)-1H-indol-1-yl)-N-methylpropan-2-amine]",A,A,A,> 10000,101 to 1000,1000 to 10000,
"C[C@@H](N)Cn1ccc2cc(OCc3ccc(F)cc3)ccc21 [Compound 5, (R)-1-(5-((4-fluorobenzyl)oxy)-1H-indol-1-yl)propan-2-amine]",B,B,B,1000 to 10000,101 to 1000,101 to 1000,
"C[C@@H](N)Cn1ccc2cc(OCc3cccc(F)c3)ccc21 [Compound 6, (R)-1-(5-((3-fluorobenzyl)oxy)-1H-indol-1-yl)propan-2-amine]",A,B,A,1000 to 10000,101 to 1000,101 to 1000,
"C[C@@H](N)Cn1ccc2cc(OCc3ccccc3F)ccc21 [Compound 7, (R)-1-(5-((2-fluorobenzyl)oxy)-1H-indol-1-yl)propan-2-amine]",B,A,A,1000 to 10000,,1000 to 10000,
"C[C@H](Cn1ccc2cc(OCc3ccc(F)cc3)ccc21)N(C)C [Compound 8, (R)-1-(5-((4-fluorobenzyl)oxy)-1H-indol-1-yl)-N,N-dimethylpropan-2-amine]",A,A,A,> 10000,< 10,10 to 100,
"C[C@H](Cn1ccc2cc(OCc3cccc(F)c3)ccc21)N(C)C [Compound 9, (R)-1-(5-((3-fluorobenzyl)oxy)-1H-indol-1-yl)-N,N-dimethylpropan-2-amine]",A,A,A,> 10000,10 to 100,101 to 1000,
"C[C@H](Cn1ccc2cc(OCc3ccccc3F)ccc21)N(C)C [Compound 10, (R)-1-(5-((2-fluorobenzyl)oxy)-1H-indol-1-yl)-N,N-dimethylpropan-2-amine]",A,A,A,> 10000,101 to 1000,10 to 100,
"CCN(CC)[C@H](C)Cn1ccc2cc(OCc3ccccc3)ccc21 [Compound 11, (R)-1-(5-(benzyloxy)-1H-indol-1-yl)-N,N-diethylpropan-2-amine]",A,A,A,> 10000,101 to 1000,1000 to 10000,
"C[C@H](Cn1ccc2cc(OCc3ccccc3)ccc21)N1CCCC1 [Compound 12, (R)-5-(benzyloxy)-1-(2-(pyrrolidin-1-yl)propyl)-1H-indole]",A,A,B,> 10000,101 to 1000,1000 to 10000,
"CN(C)CCc1c[nH]c2ccccc12 [DMT, N,N-dimethyltryptamine]",,,,,,,activate the 5HT2A sensor assay in agonist mode
COc1cc(CC(C)N)c(OC)cc1I (stereo not drawn) [DOI],,,,,,,activate the 5HT2A sensor assay in agonist mode
